# Source: patent US8524702B2, “Substituted benzoazepines as toll-like receptor modulators” (VentiRx Pharmaceuticals, Inc., priority 2009, dated 2013)
# Assays:
# TLR7 = target: T1, TLR7 (Homo sapiens, UniProt Q9NYK1); assay: PBMC assay for TLR7 (IFNα in supernatants by ELISA); assay type: cell-based; parameters: Peripheral blood mononuclear cells (PBMCs) from human blood were isolated; endogenous in cells; host or cells: human PBMCs; conditions: human PBMCs incubated with compound overnight, MC50 = concentration at which 50% of the maximum induction is seen
# T1 sequence (Q9NYK1 27-1049): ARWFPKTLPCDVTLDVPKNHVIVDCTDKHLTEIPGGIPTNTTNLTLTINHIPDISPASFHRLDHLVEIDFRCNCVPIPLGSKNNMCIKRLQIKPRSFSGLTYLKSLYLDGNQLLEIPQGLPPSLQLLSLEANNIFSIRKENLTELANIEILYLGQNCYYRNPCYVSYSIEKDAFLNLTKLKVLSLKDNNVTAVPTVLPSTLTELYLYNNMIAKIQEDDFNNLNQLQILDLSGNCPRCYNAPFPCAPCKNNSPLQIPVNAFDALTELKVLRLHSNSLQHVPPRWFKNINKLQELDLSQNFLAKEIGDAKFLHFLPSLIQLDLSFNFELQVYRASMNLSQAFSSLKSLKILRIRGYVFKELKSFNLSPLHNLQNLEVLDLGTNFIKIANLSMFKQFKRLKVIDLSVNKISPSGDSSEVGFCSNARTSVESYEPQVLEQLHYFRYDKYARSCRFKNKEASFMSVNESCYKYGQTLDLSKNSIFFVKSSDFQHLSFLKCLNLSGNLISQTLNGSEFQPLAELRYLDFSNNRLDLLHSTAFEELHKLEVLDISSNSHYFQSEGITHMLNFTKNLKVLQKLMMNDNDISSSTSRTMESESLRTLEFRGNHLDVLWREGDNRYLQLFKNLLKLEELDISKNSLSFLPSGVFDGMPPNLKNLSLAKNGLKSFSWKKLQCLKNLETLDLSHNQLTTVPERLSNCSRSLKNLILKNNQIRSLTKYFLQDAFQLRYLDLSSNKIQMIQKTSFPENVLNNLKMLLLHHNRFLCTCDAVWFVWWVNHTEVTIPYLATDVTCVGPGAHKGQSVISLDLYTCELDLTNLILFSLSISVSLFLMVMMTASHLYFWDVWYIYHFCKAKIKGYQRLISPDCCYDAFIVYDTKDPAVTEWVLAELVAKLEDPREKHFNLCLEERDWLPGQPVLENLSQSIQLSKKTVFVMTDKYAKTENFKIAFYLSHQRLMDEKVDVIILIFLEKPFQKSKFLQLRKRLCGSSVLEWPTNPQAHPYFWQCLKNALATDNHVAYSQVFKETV
# Procedure: (§1) Peripheral blood mononuclear cells (PBMCs) from human blood were isolated using BD Vacutainer Cell Preparation Tubes with sodium citrate. Cells were incubated with compound overnight. TLR8 activity was assayed by measuring the amount of TNFα in supernatants by ELISA. TLR7 activity was assayed by measuring the amount of IFNα in supernatants by ELISA (R&D Systems). […] The results of this assay are shown below in Tables 2 and 3.
# (§2) MC50 numbers are represented as factors of ten, for example, + indicates an MC50 value of ×10^4, or a value in the tens of thousands of nanomolar (nM range); ++ indicates an MC50 value of ×10^3, or a value in the thousands; +++ indicates an MC50 value of ×10^2, or a value in the hundreds; and ++++ indicates an MC50 value of ×10^1 or 10°, or a value in the tens or ones.
# TLR8 = target: T2, TLR8 (Homo sapiens, UniProt Q9NR97); assay: PBMC assay for TLR8 (TNFα in supernatants by ELISA); assay type: cell-based; parameters: Peripheral blood mononuclear cells (PBMCs) from human blood were isolated; endogenous in cells; host or cells: human PBMCs; conditions: human PBMCs incubated with compound overnight, MC50 = concentration at which 50% of the maximum induction is seen
# T2 sequence (Q9NR97 27-1041): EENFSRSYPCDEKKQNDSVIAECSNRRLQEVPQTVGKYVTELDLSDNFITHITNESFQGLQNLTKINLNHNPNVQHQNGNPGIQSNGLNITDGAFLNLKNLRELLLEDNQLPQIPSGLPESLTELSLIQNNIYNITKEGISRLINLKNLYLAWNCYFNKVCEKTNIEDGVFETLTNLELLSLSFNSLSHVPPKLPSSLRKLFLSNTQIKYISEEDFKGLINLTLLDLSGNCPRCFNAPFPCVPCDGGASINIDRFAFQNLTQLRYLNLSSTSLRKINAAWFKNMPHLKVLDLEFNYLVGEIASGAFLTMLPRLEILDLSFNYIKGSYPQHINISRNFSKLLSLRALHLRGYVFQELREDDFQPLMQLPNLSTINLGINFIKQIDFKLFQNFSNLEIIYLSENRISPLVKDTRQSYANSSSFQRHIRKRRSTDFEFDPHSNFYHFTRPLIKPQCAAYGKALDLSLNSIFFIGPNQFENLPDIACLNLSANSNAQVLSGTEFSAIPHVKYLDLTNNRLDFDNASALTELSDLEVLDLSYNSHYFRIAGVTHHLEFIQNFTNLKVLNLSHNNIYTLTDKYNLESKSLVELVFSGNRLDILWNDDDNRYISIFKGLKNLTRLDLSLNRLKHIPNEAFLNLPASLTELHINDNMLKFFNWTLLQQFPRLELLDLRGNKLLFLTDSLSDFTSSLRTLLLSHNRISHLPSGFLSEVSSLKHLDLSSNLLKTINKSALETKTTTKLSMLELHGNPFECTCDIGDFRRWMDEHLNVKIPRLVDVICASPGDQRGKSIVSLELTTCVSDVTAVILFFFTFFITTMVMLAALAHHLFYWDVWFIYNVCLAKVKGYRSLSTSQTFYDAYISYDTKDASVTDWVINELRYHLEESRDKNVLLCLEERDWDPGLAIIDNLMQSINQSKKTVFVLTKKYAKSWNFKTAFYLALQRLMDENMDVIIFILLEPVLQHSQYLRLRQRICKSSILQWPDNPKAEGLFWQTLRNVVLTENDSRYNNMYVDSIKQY
# Procedure: as §1, §2
SMILES,EC50 (TLR7) [µM],EC50 (TLR8) [µM]
"CCCN(CCC)C(=O)C1=Cc2ccc(-c3ccc(C(=O)N(CC)CC)cc3)cc2N=C(N)C1 [Compound 125, (1E,4E)-2-amino-8-(4-(diethylcarbamoyl)phenyl)-N,N-dipropyl-3H-benzo[b]azepine-4-carboxamide]",1 to 10,0.1 to 1
"CCCN(CCC)C(=O)C1=Cc2ccc(-c3ccc(C(=O)N4CC[C@H](O)C4)cc3)cc2N=C(N)C1 [Compound 128, (1E,4E)-2-amino-8-(4-((S)-3-hydroxypyrrolidine-1-carbonyl)phenyl)-N,N-dipropyl-3H-benzo[b]azepine-4-carboxamide]",1 to 10,0.001 to 0.1
"CCCN(CCC)C(=O)C1=Cc2ccc(-c3cccnc3)cc2N=C(N)C1 [Compound 133, (1E,4E)-2-amino-N,N-dipropyl-8-(pyridin-3-yl)-3H-benzo[b]azepine-4-carboxamide]",1 to 10,0.001 to 0.1
"CCCN(CCC)C(=O)C1=Cc2ccc(-c3ccncc3)cc2N=C(N)C1 [Compound 134, (1E,4E)-2-amino-N,N-dipropyl-8-(pyridin-4-yl)-3H-benzo[b]azepine-4-carboxamide]",1 to 10,0.1 to 1
"CCCN(CCC)C(=O)C1=Cc2ccc(-c3cccc(C(=O)O)c3)cc2N=C(N)C1 [Compound 186, 3-((1E,4E)-2-amino-4-(dipropylcarbamoyl)-3H-benzo[b]azepin-8-yl)benzoic acid]",–,10 to 100
"CCCN(CCC)C(=O)C1=Cc2ccc(-c3cccc(C(=O)OCC)c3)cc2N=C(N)C1 [Compound 187, Ethyl 3-((1E,4E)-2-amino-4-(dipropylcarbamoyl)-3H-benzo[b]azepin-8-yl)benzoate]",–,0.1 to 1
"CCCN(CCC)C(=O)C1=Cc2ccc(-c3ccc(C(=O)O)cc3)cc2N=C(N)C1 [Compound 188, 4-((1E,4E)-2-amino-4-(dipropylcarbamoyl)-3H-benzo[b]azepin-8-yl)benzoic acid]",–,1 to 10
"CCCN(CCCF)C(=O)C1=Cc2ccc(-c3ccc(C(=O)OCC)cc3)cc2N=C(N)C1 [Compound 208, Ethyl 4-((1E,4E)-2-amino-4-((3-fluoropropyl)(propyl)carbamoyl)-3H-benzo[b]azepin-8-yl)benzoate]",–,1 to 10
"CCCN(CCCO)C(=O)C1=Cc2ccc(-c3ccc(C(=O)O)cc3)cc2N=C(N)C1 [Compound 209, 4-((1E,4E)-2-Amino-4-((3-hydroxypropyl)(propyl)carbamoyl)-3H-benzo[b]azepin-8-yl)benzoic acid]",–,10 to 100

# More lines, now with the values ahead:
EC50 (TLR7) [µM],EC50 (TLR8) [µM],SMILES
1 to 10,0.001 to 0.1,"CCCN(C[C@H](C)O)C(=O)C1=Cc2ccc(-c3ccc(C(=O)N4CCCC4)cc3)cc2N=C(N)C1 (single isomer, unassigned) [Compound 105]"
1 to 10,1 to 10,"CC(C)CN(CC(C)C)C(=O)C1=Cc2ccc(-c3ccc(C(=O)N4CCCC4)cc3)cc2N=C(N)C1 [Compound 103, (1E,4E)-2-amino-N,N-diisobutyl-8-(4-(pyrrolidine-1-carbonyl)phenyl)-3H-benzo[b]azepine-4-carboxamide]"
1 to 10,0.001 to 0.1,"CCCN(CC(C)O)C(=O)C1=Cc2ccc(-c3ccc(C(=O)N4CCCC4)cc3)cc2N=C(N)C1 (centres unmarked) [Compound 104, (1E,4E)-2-amino-N-(2-hydroxypropyl)-N-propyl-8-(4-(pyrrolidine-1-carbonyl)phenyl)-3H-benzo[b]azepine-4-carboxamide]"
1 to 10,0.001 to 0.1,"CCCN(CCCO)C(=O)C1=Cc2ccc(-c3ccc(C(=O)N4CCCC4)cc3)cc2N=C(N)C1 [Compound 109, (1E,4E)-2-amino-N-(3-hydroxypropyl)-N-propyl-8-(4-(pyrrolidine-1-carbonyl)phenyl)-3H-benzo[b]azepine-4-carboxamide]"
10 to 100,1 to 10,"NC1=Nc2cc(-c3ccc(C(=O)N4CCCC4)cc3)ccc2C=C(C(=O)N2C[C@@H](O)[C@H](O)C2)C1 [Compound 112, (4-((1E,4E)-2-amino-4-((3R,4R)-3,4-dihydroxypyrrolidine-1-carbonyl)-3H-benzo[b]azepin-8-yl)phenyl)(pyrrolidin-1-yl)methanone]"
10 to 100,0.1 to 1,"CCCN(CC(C)(C)O)C(=O)C1=Cc2ccc(-c3ccc(C(=O)N4CCCC4)cc3)cc2N=C(N)C1 [Compound 117, (1E,4E)-2-amino-N-(2-hydroxy-2-methylpropyl)-N-propyl-8-(4-(pyrrolidine-1-carbonyl)phenyl)-3H-benzo[b]azepine-4-carboxamide]"
1 to 10,0.1 to 1,"CCCN(CCOC)C(=O)C1=Cc2ccc(-c3ccc(C(=O)N4CCCC4)cc3)cc2N=C(N)C1 [Compound 119, (1E,4E)-2-amino-N-(2-methoxyethyl)-N-propyl-8-(4-(pyrrolidine-1-carbonyl)phenyl)-3H-benzo[b]azepine-4-carboxamide]"
1 to 10,0.1 to 1,"CCCN(CCC)C(=O)C1=Cc2ccc(-c3ccc(C(=O)N4CCCCC4)cc3)cc2N=C(N)C1 [Compound 126, (1E,4E)-2-amino-8-(4-(piperidine-1-carbonyl)phenyl)-N,N-dipropyl-3H-benzo[b]azepine-4-carboxamide]"
–,0.1 to 1,"CCOC(=O)C1=Cc2ccc(-c3ccc(C(=O)N4CCCCC4)cc3)cc2N=C(N)C1 [Compound 156, (1E,4E)-ethyl 2-amino-8-(4-(piperidine-1-carbonyl)phenyl)-3H-benzo[b]azepine-4-carboxylate]"
–,1 to 10,"CCCN(CCNS(C)(=O)=O)C(=O)C1=Cc2ccc(-c3ccc(C(=O)N4CCCC4)cc3)cc2N=C(N)C1 [Compound 176, (1E,4E)-2-amino-N-(2-(methylsulfonamido)ethyl)-N-propyl-8-(4-(pyrrolidine-1-carbonyl)phenyl)-3H-benzo[b]azepine-4-carboxamide]"
–,0.1 to 1,"CCCN(CCCF)C(=O)C1=Cc2ccc(-c3ccc(C(=O)N4CCCC4)cc3)cc2N=C(N)C1 [Compound 202, (1E,4E)-2-Amino-N-(3-fluoropropyl)-N-propyl-8-(4-(pyrrolidine-1-carbonyl)phenyl)-3H-benzo[b]azepine-4-carboxamide]"
